From PubChem BioAssay AID2060882 (Molecular Pharmacology Branch, DTP, NCI, 2025)

System: 898857-211-R-J1-PDC complex spheroids, growth % test/control
Experiment: Anticancer human tumor 898857-211-R-J1-PDC patient-derived melanoma cell line growth inhibition [RAS]
Conditions: for IC50: curve of first compound; for viability, T/C: stronger effect = lower value
Procedure, shortened: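 Agents were tested in combination matrices in half-log decrements from a top concentration at or near clinical Cmax (10 microM if undetermined). Targets were multi-cell spheroids of tumour lines plus HUVEC and MSC stromal cells.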
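Note: spheroids exposed to compound for seven days before readout.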
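Throughout, for viability, T/C: 100% = DMSO vehicle control wells.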

Work on `CCc1c2c(nc3ccc(O)cc13)-c1cc3c(c(=O)n1C2)COC(=O)[C@]3(O)CC` + C=CC(=O)N1CCN(c2nc(OCC3CCCN3C)nc3c(F)c(-c4nc(N)cc(C)c4C(F)(F)F)c(Cl)cc23)C(C)C1 yielded an IC50 (second compound 0.00316 µM) of 4.67 nM, an IC50 (second compound 0.01 µM) of 4.95 nM and an IC50 (second compound 0.0316 µM) of 5.08 nM. It also gave an IC50 (second compound 0.1 µM) of 4.95 nM, an IC50 (second compound 0.316 µM) of 5.43 nM and an IC50 (second compound 1 µM) of 5.56 nM. For the same compound, the viability, T/C (second compound 0.00316 µM, first compound 0.000949 µM) was 95.2%, the viability, T/C (second compound 0.00316 µM, first compound 0.003 µM) was 64.1% and the viability, T/C (second compound 0.00316 µM, first compound 0.00949 µM) was 27.9%. For the same compound, the viability, T/C (second compound 0.00316 µM, first compound 0.03 µM) was 8.98%, the viability, T/C (second compound 0.00316 µM, first compound 0.0949 µM) was 7.24% and the viability, T/C (second compound 0.00316 µM, first compound 0.3 µM) was 8.79%. For the same compound, the viability, T/C (second compound 0.01 µM, first compound 0.000949 µM) was 89.6%, the viability, T/C (second compound 0.01 µM, first compound 0.003 µM) was 67.4% and the viability, T/C (second compound 0.01 µM, first compound 0.00949 µM) was 27.5%. It also gave a viability, T/C (second compound 0.01 µM, first compound 0.03 µM) of 10.1%, a viability, T/C (second compound 0.01 µM, first compound 0.0949 µM) of 7.97% and a viability, T/C (second compound 0.01 µM, first compound 0.3 µM) of 8.39%. The viability, T/C (second compound 0.0316 µM, first compound 0.000949 µM) was 87.3%, the viability, T/C (second compound 0.0316 µM, first compound 0.003 µM) was 69.2% and the viability, T/C (second compound 0.0316 µM, first compound 0.00949 µM) was 27.4%. The viability, T/C (second compound 0.0316 µM, first compound 0.03 µM) was 8.88%, the viability, T/C (second compound 0.0316 µM, first compound 0.0949 µM) was 8.21% and the viability, T/C (second compound 0.0316 µM, first compound 0.3 µM) was 8.99%. For the same compound, the viability, T/C (second compound 0.1 µM, first compound 0.000949 µM) was 93%, the viability, T/C (second compound 0.1 µM, first compound 0.003 µM) was 68.7% and the viability, T/C (second compound 0.1 µM, first compound 0.00949 µM) was 26%. For the same compound, the viability, T/C (second compound 0.1 µM, first compound 0.03 µM) was 8.12%, the viability, T/C (second compound 0.1 µM, first compound 0.0949 µM) was 7.6% and the viability, T/C (second compound 0.1 µM, first compound 0.3 µM) was 8.98%. The viability, T/C (second compound 0.316 µM, first compound 0.000949 µM) was 98.4%, the viability, T/C (second compound 0.316 µM, first compound 0.003 µM) was 73.3% and the viability, T/C (second compound 0.316 µM, first compound 0.00949 µM) was 28.4%. For the same compound, the viability, T/C (second compound 0.316 µM, first compound 0.03 µM) was 9.68%, the viability, T/C (second compound 0.316 µM, first compound 0.0949 µM) was 9.81% and the viability, T/C (second compound 0.316 µM, first compound 0.3 µM) was 8.65%. The viability, T/C (second compound 1 µM, first compound 0.000949 µM) was 98%, the viability, T/C (second compound 1 µM, first compound 0.003 µM) was 75.5% and the viability, T/C (second compound 1 µM, first compound 0.00949 µM) was 27.8%. It also gave a viability, T/C (second compound 1 µM, first compound 0.03 µM) of 11.4%, a viability, T/C (second compound 1 µM, first compound 0.0949 µM) of 8.78% and a viability, T/C (second compound 1 µM, first compound 0.3 µM) of 8.26%.

For `Nc1ccn(C2OC(CO)C(O)C2(F)F)c(=O)n1` (centres undefined) + C=CC(=O)N1CCN(c2nc(OCC3CCCN3C)nc3c(F)c(-c4nc(N)cc(C)c4C(F)(F)F)c(Cl)cc23)C(C)C1, the IC50 (second compound 0.00316 µM) was 7.89 nM, the IC50 (second compound 0.01 µM) was 7.24 nM and the IC50 (second compound 0.0316 µM) was 7.1 nM. For the same compound, the IC50 (second compound 0.1 µM) was 6.99 nM, the IC50 (second compound 0.316 µM) was 7.3 nM and the IC50 (second compound 1 µM) was 6.89 nM. For the same compound, the viability, T/C (second compound 0.00316 µM, first compound 0.00316 µM) was 110%, the viability, T/C (second compound 0.00316 µM, first compound 0.01 µM) was 34.5% and the viability, T/C (second compound 0.00316 µM, first compound 0.0316 µM) was 6.39%. The viability, T/C (second compound 0.00316 µM, first compound 0.1 µM) was 4.85%, the viability, T/C (second compound 0.00316 µM, first compound 0.316 µM) was 5.1% and the viability, T/C (second compound 0.00316 µM, first compound 1 µM) was 4.69%. The viability, T/C (second compound 0.01 µM, first compound 0.00316 µM) was 107%, the viability, T/C (second compound 0.01 µM, first compound 0.01 µM) was 27.9% and the viability, T/C (second compound 0.01 µM, first compound 0.0316 µM) was 5.64%. It also gave a viability, T/C (second compound 0.01 µM, first compound 0.1 µM) of 4.72%, a viability, T/C (second compound 0.01 µM, first compound 0.316 µM) of 4.8% and a viability, T/C (second compound 0.01 µM, first compound 1 µM) of 4.83%. For the same compound, the viability, T/C (second compound 0.0316 µM, first compound 0.00316 µM) was 103%, the viability, T/C (second compound 0.0316 µM, first compound 0.01 µM) was 27.9% and the viability, T/C (second compound 0.0316 µM, first compound 0.0316 µM) was 7.07%. It also gave a viability, T/C (second compound 0.0316 µM, first compound 0.1 µM) of 5.22%, a viability, T/C (second compound 0.0316 µM, first compound 0.316 µM) of 4.65% and a viability, T/C (second compound 0.0316 µM, first compound 1 µM) of 4.83%. For the same compound, the viability, T/C (second compound 0.1 µM, first compound 0.00316 µM) was 96%, the viability, T/C (second compound 0.1 µM, first compound 0.01 µM) was 29.2% and the viability, T/C (second compound 0.1 µM, first compound 0.0316 µM) was 6.93%. It also gave a viability, T/C (second compound 0.1 µM, first compound 0.1 µM) of 4.35%, a viability, T/C (second compound 0.1 µM, first compound 0.316 µM) of 4.72% and a viability, T/C (second compound 0.1 µM, first compound 1 µM) of 4.89%. The viability, T/C (second compound 0.316 µM, first compound 0.00316 µM) was 103%, the viability, T/C (second compound 0.316 µM, first compound 0.01 µM) was 30.1% and the viability, T/C (second compound 0.316 µM, first compound 0.0316 µM) was 6.17%. The viability, T/C (second compound 0.316 µM, first compound 0.1 µM) was 5.08%, the viability, T/C (second compound 0.316 µM, first compound 0.316 µM) was 5.71% and the viability, T/C (second compound 0.316 µM, first compound 1 µM) was 4.45%. The viability, T/C (second compound 1 µM, first compound 0.00316 µM) was 104%, the viability, T/C (second compound 1 µM, first compound 0.01 µM) was 24% and the viability, T/C (second compound 1 µM, first compound 0.0316 µM) was 8.63%. For the same compound, the viability, T/C (second compound 1 µM, first compound 0.1 µM) was 5.29%, the viability, T/C (second compound 1 µM, first compound 0.316 µM) was 6.52% and the viability, T/C (second compound 1 µM, first compound 1 µM) was 5.69%.
